Among the data in patent publication US5541168A, “Substituted 2-(phosphinyloxymethyl)-1,2,5-thiadiazolidin-3-one 1,1-dioxides and compositions and method of use thereof” (Sterling Winthrop Inc., priority 1994, dated 1996) are Ki values, retold here.

A word on the Ki: it is a dissociation constant, usually derived from enzyme kinetics or from competition with a known ligand.

Read-outs that look alike come from different tables or passages of the source.

The target of the experiment is T1, human leukocyte elastase (Homo sapiens, UniProt P08246).
T1 sequence (P08246 30-247 limits assumed): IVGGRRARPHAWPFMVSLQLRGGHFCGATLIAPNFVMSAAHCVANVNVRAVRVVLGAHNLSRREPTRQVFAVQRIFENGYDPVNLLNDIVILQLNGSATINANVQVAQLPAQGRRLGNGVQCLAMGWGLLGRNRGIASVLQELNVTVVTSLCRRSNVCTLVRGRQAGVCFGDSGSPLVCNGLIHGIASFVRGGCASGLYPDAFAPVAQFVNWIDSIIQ
Briefly: human leukocyte elastase inhibitory activity (MeOSuc-Ala-Ala-Pro-Val-pNA substrate, absorbance progress curves). It is filed as biochemical. The procedure:
The test compound (inhibitor) is dissolved in DMSO in a vial to produce an inhibitor stock solution which has a concentration in the range of 200-1000 μM. The inhibitor stock solution is diluted (1:4, 1:16 and 1:64) into assay vials (vials 1, 2 and 3 respectively) containing 2.4 mL of buffer solution (50 mM N-[2-hydroxyethyl]piperazine-N'-[2-ethanesulfonic acid]/NaOH, 500 mM NaCl, pH 7.8 at 25° C.) and DMSO is added so that the total volume in each vial is 3.2 mL. 70 μL, 50 μL, 35 μL and 25 μL of inhibitor from assay vial 1 is placed into the first four wells of a 96-well microtiter plate and each well is made up to 90 μL total volume with the addition of a 25% DMSO/buffer solution. The inhibitor from assay vials 2 and 3 is processed in a similar manner and placed in wells 5-12 respectively to afford a total of 12 different inhibitor concentrations. Four wells (wells 13-16) containing 90 μL of the 25% DMSO/buffer solution but no inhibitor are also run simultaneously with the inhibited wells as a control. 150 μL of substrate solution (prepared by the addition of 500 μL of the human leukocyte elastase (HLE) substrate MeOSuc-Ala-Ala-Pro-Val-pNA (18.7 mM in DMSO) to 19.5 mL of buffer solution) is then added simultaneously into each of the 16 wells and the solution in each well was thoroughly mixed.
The 96-well microtiter plate is placed into a Microplate Reader #89815A spectrophotometer and 110 μL of the enzyme solution (prepared as follows: a mixture of 20 mL of buffer solution and 20 mg of bovine serum albumen is gently vortexed in a scintillation vial and 5 μL HLE stock solution (1 mg/mL dissolved in deionized water) is added) is added simultaneously to each of the 16 wells. Each of the solutions in the wells is throughly mixed and then the time-dependent absorbance data is collected at an absorbance of 410 nm until the assay is complete. It should be noted that although this assay method can be done manually, it is preferred to perform the assay robotically using a Hewlett Packard MicroAssay System Robot.
A plot of the absorbance versus time data thus obtained affords progress curves the final slope of which is equal to the final steady-state velocities (VF). Using the program ENZFITTER (Elsevier software), the progress curves for the four control assays ([I]=0) are fit by linear regression to yield the enzyme reaction velocity values in the absences of inhibitor (Vo) which are averaged to produce a single fixed value. The inhibition constant Ki (nM) is then obtained from a plot of [formula] which affords a linear plot wherein: [formula] and [S] is the concentration of the substrate and Km is the Michaelis constant.
Table V summarizes the results obtained from the testing of representative compounds of the invention for human leukocyte elastase inhibitory activity.

For the compound `CCCC1NS(=O)(=O)N(COP(=O)(OCC)OCC)C1=O` (centres unmarked) [3(f), 2-(diethoxyphosphinyloxymethyl)-4-propyl-1,2,5-thiadiazolidin-3-one 1,1-dioxide], affinity was put at a Ki of 25 nM.
The same measure, in the same setting: in the case of `CCCC1C(=O)N(COP(=O)(OCC)OCC)S(=O)(=O)N1C` (centres unmarked) [1(i), 2-(diethoxyphosphinyloxymethyl)-4-propyl-5-methyl-1,2,5-thiadiazolidin-3-one 1,1-dioxide] it was 2 nM.
Same read-out and setting: in the case of `CCOP(=O)(OCC)OCN1C(=O)C(C(C)C)N(C)S1(=O)=O` (centres unmarked) [2(i), 2-(diethoxyphosphinyloxymethyl)-4-isopropyl-5-methyl-1,2,5-thiadiazolidin-3-one 1,1-dioxide] it was 680 nM.
`CCOP(=O)(OCC)OCN1C(=O)C2CCCCN2S1(=O)=O` (centres unmarked) [17(f), 2-(diethoxyphosphinyloxymethyl)-1,2,5-thiadiazolo[2,3-a]3,3a,4,5,6,7-hexahydropyridine-3-one 1,1-dioxide] showed a Ki of 500 nM.
For the compound `CC(C)CCC1C(=O)N(COP(=O)(OCc2ccccc2)OCc2ccccc2)S(=O)(=O)N1C` (centres unmarked) [4(j), 2-(dibenzyloxyphosphinyloxymethyl)-4-(3-methylbutyl)-5-methyl-1,2,5-thiadiazolidin-3-one 1,1-dioxide], the Ki (human leukocyte elastase, substrate MeOSuc-Ala-Ala-Pro-Val-pNA, pH 7.8, 25° C. buffer, read-out: Ki) came out at 1.5 nM.
